Values after ≈ are worked out from the molar mass of the structure shown.

One test concerns C. albicans B2630. Nature of the test: In-vitro antifungal activity, broth-dilution liquid MIC. The test is classed as cell-based. Particulars: Candida albicans, 30° C., 48h, MIC determined visually, read-out: Liquid MIC (μg/ml) for Soraphen A. On the procedure: (§1) Compounds were tested over a concentration range of 1024-0.00098 μg/ml by a broth-dilution method in microtitre plates using doubling dilutions in YPD or YPGal (both containing 500 μg/l d-biotin). Stock solutions of inhibitors were prepared at 51.2 mg/ml in Dimethyl sulphoxide (DMSO) (final assay concentration of DMSO was 2% v/v). Each Yeast culture was added to the well to give a final 10^4 cfu/well. The plates were incubated at 30° C. for 48h and MIC's determined visually.

The subject of the next test is S. cerevisiae CLS2-13. The description is as above. The test is classed as cell-based. Particulars: Saccharomyces cerevisiae, CLS213, 30° C., 48h, MIC determined visually, read-out: Liquid MIC (μg/ml) for Soraphen A. How it is done: as §1
A further test concerns S. cerevisiae Mey 134. The test is described as above. Format: cell-based. The settings on record: Saccharomyces cerevisiae, MEY134, 30° C., 48h, MIC determined visually, read-out: Liquid MIC (μg/ml) for Soraphen A. On the procedure: as §1
For test [1], the system named is S. cerevisiae PNS 117a 5C. The description is as above. The test is classed as cell-based. Particulars: Saccharomyces cerevisiae, PNS117A5C, 30° C., 48h, MIC determined visually, read-out: Liquid MIC (μg/ml) for Soraphen A. On the procedure:
as §1

Test [2] concerns S. cerevisiae PNS 117b 6A. The test is described as above. Particulars: Saccharomyces cerevisiae, PNS117B6A, 30° C., 48h, MIC determined visually, read-out: Liquid MIC (μg/ml) for Soraphen A. The test is classed as cell-based. How it is done:
as §1

Test [3] has as its system S. cerevisiae PNS 120a 6C. The test is described as above. The test is classed as cell-based. The settings on record: Saccharomyces cerevisiae, PNS120A6C, 30° C., 48h, MIC determined visually, read-out: Liquid MIC (μg/ml) for Soraphen A. How it is done: as §1
The test system of test [4] is S. cerevisiae PNS 120b 1C. The description is as above. The settings on record: Saccharomyces cerevisiae, PNS120B1C, 30° C., 48h, MIC determined visually, read-out: Liquid MIC (μg/ml) for Soraphen A. The test is classed as cell-based. On the procedure:
as §1

The target in test [5] is ACCase preparation from S. cerevisiae CLS2-13 (C. albicans ACC1 gene in Yep24) (Candida albicans, UniProt A0A1D8PRR7). Nature of the test: In-vitro ACCase assay ([14C] NaHCO3 incorporation). Particulars: 37° C., 5 minutes, read-out: IC50 for Soraphen A (nM) against ACCase preparations. The test is classed as biochemical. How it is done:
(§2) Cultures of the appropriate yeast strains were grown to the exponential phase of growth (for Saccharomyces and Candida strains respectively). These were then harvested by centrifugation (4400 g, 10 min, 4° C.), washed twice in 700 ml of 50 mM Tris pH7.5 containing 20% w/v gylcerol, resuspending the cell pellet each time. […] The volume of buffer required was dependent on the total packed cell wet weight. (i.e. 1 ml buffer added per 6 gm of packed wet cell pellet).
(§3) The cell paste was homogenised using a pre-cooled Bead-Beater (Biospec Products, Bartlesville, Okla. 74005) with 4×10 second Bursts, allowing 20 second intervals on ice. The preparation was then centrifuged at 31,180 g for 30 minutes. After centrifugation the supernatant was immediately decanted into a container, then aliquoted before snap freezing in liquid nitrogen.

Test [6] concerns the target ACCase preparation from S. cerevisiae PNS 117a 5C (Candida albicans, UniProt A0A1D8PRR7). Description: In-vitro ACCase assay ([14C] NaHCO3 incorporation). The test is classed as biochemical. The settings on record: 37° C., 5 minutes, read-out: IC50 for Soraphen A (nM) against ACCase preparations. How it is done: as §2, §3
The target in test [7] is ACCase preparation from S. cerevisiae PNS 117b 6A (Candida albicans, UniProt A0A1D8PRR7). Description: In-vitro ACCase assay ([14C] NaHCO3 incorporation). Format: biochemical, C. albicans. Particulars: 37° C., 5 minutes, read-out: IC50 for Soraphen A (nM) against ACCase preparations. How it is done: as §2, §3
In a further test the test system is C. albicans ACC1. Particulars: isolated fully functional C. albicans ACC1.

Chain of ACCase preparation from S. cerevisiae PNS 117b 6A (A0A1D8PRR7 entry or part of it): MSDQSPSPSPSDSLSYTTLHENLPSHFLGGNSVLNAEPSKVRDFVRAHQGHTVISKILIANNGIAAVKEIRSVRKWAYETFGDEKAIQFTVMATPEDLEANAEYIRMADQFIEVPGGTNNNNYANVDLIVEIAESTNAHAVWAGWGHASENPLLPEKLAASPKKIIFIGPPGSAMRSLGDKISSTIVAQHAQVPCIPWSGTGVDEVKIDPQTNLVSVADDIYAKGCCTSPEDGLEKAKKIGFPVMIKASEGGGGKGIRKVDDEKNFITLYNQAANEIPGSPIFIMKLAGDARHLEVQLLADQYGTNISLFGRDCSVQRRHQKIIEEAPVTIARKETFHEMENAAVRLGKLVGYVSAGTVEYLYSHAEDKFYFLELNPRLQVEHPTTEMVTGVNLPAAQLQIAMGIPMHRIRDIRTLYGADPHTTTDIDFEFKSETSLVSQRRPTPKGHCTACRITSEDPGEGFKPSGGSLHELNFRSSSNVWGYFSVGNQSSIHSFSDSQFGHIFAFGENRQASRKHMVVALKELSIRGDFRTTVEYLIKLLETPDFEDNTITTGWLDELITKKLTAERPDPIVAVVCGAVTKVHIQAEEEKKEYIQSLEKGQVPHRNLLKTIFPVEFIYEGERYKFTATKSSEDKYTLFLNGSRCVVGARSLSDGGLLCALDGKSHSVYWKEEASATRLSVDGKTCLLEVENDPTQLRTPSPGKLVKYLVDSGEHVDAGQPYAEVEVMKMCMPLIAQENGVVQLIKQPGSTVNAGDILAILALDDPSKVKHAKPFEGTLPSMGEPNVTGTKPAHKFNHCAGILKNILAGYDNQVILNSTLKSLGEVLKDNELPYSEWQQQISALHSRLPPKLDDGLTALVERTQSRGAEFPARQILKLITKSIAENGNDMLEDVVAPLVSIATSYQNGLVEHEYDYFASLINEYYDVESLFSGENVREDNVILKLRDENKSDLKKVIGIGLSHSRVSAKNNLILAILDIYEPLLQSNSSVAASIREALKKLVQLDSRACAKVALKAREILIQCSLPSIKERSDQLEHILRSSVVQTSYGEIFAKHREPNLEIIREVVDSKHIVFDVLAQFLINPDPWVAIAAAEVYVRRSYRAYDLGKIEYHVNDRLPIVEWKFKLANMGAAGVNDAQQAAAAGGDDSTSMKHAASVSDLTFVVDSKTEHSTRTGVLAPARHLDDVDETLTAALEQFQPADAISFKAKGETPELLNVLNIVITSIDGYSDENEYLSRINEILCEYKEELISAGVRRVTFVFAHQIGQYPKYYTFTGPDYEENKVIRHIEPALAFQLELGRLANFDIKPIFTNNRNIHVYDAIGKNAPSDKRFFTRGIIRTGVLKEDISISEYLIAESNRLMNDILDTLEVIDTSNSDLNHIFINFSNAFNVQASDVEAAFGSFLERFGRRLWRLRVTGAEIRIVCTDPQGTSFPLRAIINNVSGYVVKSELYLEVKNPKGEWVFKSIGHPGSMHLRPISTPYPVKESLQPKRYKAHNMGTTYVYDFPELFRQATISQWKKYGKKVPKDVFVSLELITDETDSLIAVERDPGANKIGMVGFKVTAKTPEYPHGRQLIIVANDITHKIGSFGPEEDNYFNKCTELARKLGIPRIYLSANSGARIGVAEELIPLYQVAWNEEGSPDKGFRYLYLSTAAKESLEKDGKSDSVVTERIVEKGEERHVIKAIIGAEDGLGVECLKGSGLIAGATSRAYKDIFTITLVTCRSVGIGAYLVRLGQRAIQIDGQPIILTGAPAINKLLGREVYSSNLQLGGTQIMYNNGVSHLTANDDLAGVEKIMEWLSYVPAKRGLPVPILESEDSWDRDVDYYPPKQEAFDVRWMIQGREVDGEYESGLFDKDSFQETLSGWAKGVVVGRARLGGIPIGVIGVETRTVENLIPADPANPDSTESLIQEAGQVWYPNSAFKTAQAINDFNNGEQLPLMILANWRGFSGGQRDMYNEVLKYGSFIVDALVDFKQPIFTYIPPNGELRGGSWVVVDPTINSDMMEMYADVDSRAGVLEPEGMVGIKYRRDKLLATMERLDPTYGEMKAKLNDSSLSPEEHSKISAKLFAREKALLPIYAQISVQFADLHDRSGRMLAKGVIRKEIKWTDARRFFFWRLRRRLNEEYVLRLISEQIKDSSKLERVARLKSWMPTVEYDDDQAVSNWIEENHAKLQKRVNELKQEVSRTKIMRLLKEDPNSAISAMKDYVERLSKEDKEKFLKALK
Chain of ACCase preparation from S. cerevisiae CLS2-13 (C. albicans ACC1 gene in Yep24) (A0A1D8PRR7 entry or part of it): as above

Turning to `CO[C@H]1CCCC[C@@H](c2ccccc2)OC(=O)[C@@H](C)[C@@]2(O)O[C@H]([C@@H](C)[C@H](O)[C@H]2OC)[C@@H](C)/C=C/[C@H]1OC` [Soraphen A], the MIC with C. albicans B2630 amounted to 0.003 µg/mL (≈ 0.00576 µM); with S. cerevisiae CLS2-13, 2 µg/mL (≈ 3.84 µM); with S. cerevisiae Mey 134 it was 8 µg/mL (≈ 15.4 µM); in [1], 2 µg/mL (≈ 3.84 µM); in test [2], 4 µg/mL (≈ 7.68 µM); in test [3], 0.5 µg/mL (≈ 0.96 µM). For the same molecule, in test [4], the MIC worked out at 0.125 µg/mL (≈ 0.24 µM). Besides, the IC50 came to 2.5 nM in test [5], 17.5 nM in test [6] and 13.1 nM in test [7]. The “inhibition by SoraphenA” value with C. albicans ACC1 is listed as 100%.
